Reference: patent US9469650B2, “Melampomagnolide B derivatives” (BOARD OF TRUSTEES OF THE UNIVERSITY OF ARKANSAS, priority 2013, dated 2016)

Assays:
HS 578T = test: panel of 60 human tumor cell lines, growth inhibition (Breast Cancer); settings: Homo sapiens, Hs-578T; for CC50: read-out: LC50; for IC (TGI): read-out: TGI
SK-MEL-28 = test: panel of 60 human tumor cell lines, growth inhibition (Melanoma); settings: Homo sapiens; for GI50: SK-MEL-28; for CC50: SK-MEL-28, read-out: LC50; for IC (TGI): SK-MEL-28, read-out: TGI
COLO 205 = test: panel of 60 human tumor cell lines, growth inhibition (Colon Cancer); settings: Homo sapiens; for GI50: COLO 205; for CC50: COLO 205, read-out: LC50; for IC (TGI): COLO 205, read-out: TGI
SR = test: panel of 60 human tumor cell lines, growth inhibition (Leukemia); settings: Homo sapiens; for CC50: read-out: LC50; for IC (TGI): read-out: TGI
MDA-MB-435 = test: panel of 60 human tumor cell lines, growth inhibition (Melanoma); settings: Homo sapiens; for GI50: MDA-MB-435; for CC50: MDA-MB-435, read-out: LC50; for IC (TGI): MDA-MB-435, read-out: TGI
MDA-MB-468 = test: panel of 60 human tumor cell lines, growth inhibition (Breast Cancer); settings: Homo sapiens; for GI50: MDA-MB-468; for CC50: MDA-MB-468, read-out: LC50; for IC (TGI): MDA-MB-468, read-out: TGI
SK-MEL-5 = test: panel of 60 human tumor cell lines, growth inhibition (Melanoma); settings: Homo sapiens; for GI50: SK-MEL-5; for CC50: SK-MEL-5, read-out: LC50; for IC (TGI): SK-MEL-5, read-out: TGI
SF-539 = test: panel of 60 human tumor cell lines, growth inhibition (CNS Cancer); settings: Homo sapiens; for GI50: SF-539; for CC50: SF-539, read-out: LC50; for IC (TGI): SF-539, read-out: TGI
NCI-H460 = test: panel of 60 human tumor cell lines, growth inhibition (Non-Small Cell Lung Cancer); settings: Homo sapiens; for GI50: NCI-H460; for CC50: NCI-H460, read-out: LC50; for IC (TGI): NCI-H460, read-out: TGI
HT29 = test: panel of 60 human tumor cell lines, growth inhibition (Colon Cancer); settings: for Percent Growth: HT29; for GI50 / CC50 / IC (TGI): Homo sapiens; for GI50: HT-29; for CC50: HT-29, read-out: LC50; for IC (TGI): HT-29, read-out: TGI
TK-10 = test: panel of 60 human tumor cell lines, growth inhibition (Renal Cancer); settings: Homo sapiens; for CC50: TK-10, read-out: LC50; for IC (TGI): TK-10, read-out: TGI
MOLT-4 = test: panel of 60 human tumor cell lines, growth inhibition (Leukemia); settings: Homo sapiens; for GI50: MOLT-4; for CC50: MOLT-4, read-out: LC50; for IC (TGI): MOLT-4, read-out: TGI
NCI/ADR-RES = test: panel of 60 human tumor cell lines, growth inhibition (Ovarian Cancer); settings: Homo sapiens; for CC50: read-out: LC50; for IC (TGI): read-out: TGI
ACHN = test: panel of 60 human tumor cell lines, growth inhibition (Renal Cancer); settings: Homo sapiens; for CC50: read-out: LC50; for IC (TGI): read-out: TGI
T-47D = test: panel of 60 human tumor cell lines, growth inhibition (Breast Cancer); settings: Homo sapiens, T47D; for CC50: read-out: LC50; for IC (TGI): read-out: TGI
KM12 = test: panel of 60 human tumor cell lines, growth inhibition (Colon Cancer); settings: for GI50 / CC50: Homo sapiens; for CC50: KM12, read-out: LC50
CCRF-CEM = test: panel of 60 human tumor cell lines, growth inhibition (Leukemia); settings: Homo sapiens; for CC50: read-out: LC50; for IC (TGI): read-out: TGI
NCI-H23 = test: panel of 60 human tumor cell lines, growth inhibition (Non-Small Cell Lung Cancer); settings: Homo sapiens; for GI50: NCI-H23; for CC50: NCI-H23, read-out: LC50; for IC (TGI): NCI-H23, read-out: TGI
OVCAR-8 = test: panel of 60 human tumor cell lines, growth inhibition (Ovarian Cancer); settings: Homo sapiens; for GI50: OVCAR-8; for CC50: OVCAR-8, read-out: LC50; for IC (TGI): OVCAR-8, read-out: TGI

`C=C1C(=O)O[C@H]2[C@H]1CC/C(COC(=O)Nc1n[nH]c(SC)n1)=C\CC[C@@]1(C)O[C@@H]21` [JVM 64, ((1aR,7aS,10aS,10bS,E)-1a-methyl-8-methylene-9-oxo-1a,2,3,6,7,7a,8,9,10a,10b-decahydrooxireno[2′,3′:9,10]cyclodeca[1,2-b]furan-5-yl)methyl-(5-(methylthio)-1H-1,2,4-triazol-3-yl)carbamate] was tested, and the GI50 (HS 578T) was 2.44 µM, the CC50 (HS 578T) was > 100 µM and the IC (TGI) (HS 578T) was 8.75 µM. It also gave a GI50 (SK-MEL-28) of 1.85 µM, a CC50 (SK-MEL-28) of 17.9 µM and an IC (TGI) (SK-MEL-28) of 4.86 µM. For the same molecule, the GI50 (COLO 205) was 1.79 µM, the CC50 (COLO 205) was 7.35 µM and the IC (TGI) (COLO 205) was 3.63 µM. For the same molecule, the GI50 (SR) was 2.36 µM, the CC50 (SR) was > 100 µM and the IC (TGI) (SR) was 7.13 µM. The GI50 (MDA-MB-435) was 2.24 µM, the CC50 (MDA-MB-435) was 74.8 µM and the IC (TGI) (MDA-MB-435) was 7.13 µM. The GI50 (MDA-MB-468) was 1.29 µM, the CC50 (MDA-MB-468) was 21.8 µM and the IC (TGI) (MDA-MB-468) was 4.04 µM. The GI50 (SK-MEL-5) was 3.13 µM, the CC50 (SK-MEL-5) was 37.5 µM and the IC (TGI) (SK-MEL-5) was 12.4 µM. It also gave a GI50 (SF-539) of 1.76 µM, a CC50 (SF-539) of 9.46 µM and an IC (TGI) (SF-539) of 4.08 µM. The GI50 (NCI-H460) was 4.03 µM, the CC50 (NCI-H460) was > 100 µM and the IC (TGI) (NCI-H460) was 18.9 µM. For the same molecule, the “Percent Growth” value (HT29; Log10 Concentration −4.0) was −79%, the “Percent Growth” value (HT29; Log10 Concentration −5.0) was −11% and the “Percent Growth” value (HT29; Log10 Concentration −6.0) was 92%. For the same molecule, the “Percent Growth” value (HT29; Log10 Concentration −7.0) was 101%, the “Percent Growth” value (HT29; Log10 Concentration −8.0) was 102% and the GI50 (HT29) was 2.55 µM. The CC50 (HT29) was 37.4 µM, the IC (TGI) (HT29) was 7.77 µM and the GI50 (TK-10; TK-10, TK-10, 5-dose assay) was 2.51 µM. It also gave a GI50 (TK-10; TK-10, TK-10, NCI five dose) of 2.51 µM, a CC50 (TK-10) of 27.4 µM and an IC (TGI) (TK-10) of 7.16 µM. For the same molecule, the GI50 (MOLT-4) was 2.32 µM, the CC50 (MOLT-4) was 88.5 µM and the IC (TGI) (MOLT-4) was 6.59 µM. For the same molecule, the GI50 (NCI/ADR-RES) was 24.7 µM, the CC50 (NCI/ADR-RES) was > 100 µM and the IC (TGI) (NCI/ADR-RES) was > 100 µM. The GI50 (ACHN) was 1.75 µM, the CC50 (ACHN) was 17.8 µM and the IC (TGI) (ACHN) was 4.89 µM. It also gave a GI50 (T-47D) of 2.23 µM, a CC50 (T-47D) of 70.9 µM and an IC (TGI) (T-47D) of 5.31 µM. For the same molecule, the GI50 (KM12; KM12) was 4.01 µM, the CC50 (KM12) was 41.5 µM and the “Percent Growth” value (KM12; KM12, Log10 Concentration −4.0) was −91%. For the same molecule, the “Percent Growth” value (KM12; KM12, Log10 Concentration −5.0) was 17%, the “Percent Growth” value (KM12; KM12, Log10 Concentration −6.0) was 101% and the “Percent Growth” value (KM12; KM12, Log10 Concentration −7.0) was 108%. The “Percent Growth” value (KM12; KM12, Log10 Concentration −8.0) was 104%, the TGI (KM12; KM12, NCI five dose) was 1.43E−5 and the GI50 (CCRF-CEM; 5-dose assay) was 0.62 µM. For the same molecule, the GI50 (CCRF-CEM; NCI five dose) was 0.626 µM, the GI50 (CCRF-CEM; leukemia cell line CCRF-CEM) was 0.62 µM and the CC50 (CCRF-CEM) was 55.8 µM. It also gave an IC (TGI) (CCRF-CEM) of 3.56 µM, a GI50 (NCI-H23) of 3.21 µM and a CC50 (NCI-H23) of 63.6 µM. For the same molecule, the IC (TGI) (NCI-H23) was 14.1 µM, the GI50 (OVCAR-8) was 2.71 µM and the CC50 (OVCAR-8) was 51.6 µM. The IC (TGI) (OVCAR-8) was 12.1 µM.
`C=C1C(=O)O[C@H]2[C@H]1CC/C(COC(=O)NCCN1CCCC1)=C\CC[C@@]1(C)O[C@@H]21` [JVM 59, ((1aR,7aS,10aS,10bS,E)-1a-methyl-8-methylene-9-oxo-1a,2,3,6,7,7a,8,9,10a,10b-decahydrooxireno[2′,3′:9,10]cyclodeca[1,2-b]furan-5-yl)methyl-(2-(pyrrolidin-1-yl)ethyl)carbamate] was tested, and the GI50 (HS 578T) was 19.7 µM, the CC50 (HS 578T) was > 100 µM and the IC (TGI) (HS 578T) was 69 µM. It also gave a GI50 (SK-MEL-28) of 12.3 µM, a CC50 (SK-MEL-28) of 52 µM and an IC (TGI) (SK-MEL-28) of 25.3 µM. It also gave a GI50 (COLO 205) of 4.78 µM, a CC50 (COLO 205) of 45 µM and an IC (TGI) (COLO 205) of 16.8 µM. The GI50 (SR) was 10.2 µM, the CC50 (SR) was > 100 µM and the IC (TGI) (SR) was 39.3 µM. It also gave a GI50 (MDA-MB-435) of 6.56 µM, a CC50 (MDA-MB-435) of 53.4 µM and an IC (TGI) (MDA-MB-435) of 21.1 µM. The GI50 (MDA-MB-468) was 2.3 µM, the CC50 (MDA-MB-468) was 42.9 µM and the IC (TGI) (MDA-MB-468) was 9.06 µM. For the same molecule, the GI50 (SK-MEL-5) was 15.5 µM, the CC50 (SK-MEL-5) was 55.1 µM and the IC (TGI) (SK-MEL-5) was 29.2 µM. The GI50 (SF-539) was 15 µM, the CC50 (SF-539) was 54.1 µM and the IC (TGI) (SF-539) was 28.5 µM. The GI50 (NCI-H460) was 22.3 µM, the CC50 (NCI-H460) was > 100 µM and the IC (TGI) (NCI-H460) was 51.4 µM. For the same molecule, the “Percent Growth” value (HT29; Log10 Concentration −4.0) was −76%, the “Percent Growth” value (HT29; Log10 Concentration −5.0) was 59% and the “Percent Growth” value (HT29; Log10 Concentration −6.0) was 99%. The “Percent Growth” value (HT29; Log10 Concentration −7.0) was 101%, the “Percent Growth” value (HT29; Log10 Concentration −8.0) was 98% and the GI50 (HT29) was 11.7 µM. The CC50 (HT29) was 64.4 µM, the IC (TGI) (HT29) was 27.4 µM and the GI50 (TK-10; TK-10, TK-10, five dose) was 3.11 µM. The GI50 (TK-10; TK-10, TK-10, 5-dose assay) was 3.11 µM, the CC50 (TK-10) was 40.2 µM and the IC (TGI) (TK-10) was 14.1 µM. It also gave a GI50 (MOLT-4) of 3.48 µM, a CC50 (MOLT-4) of 89.7 µM and an IC (TGI) (MOLT-4) of 17.5 µM. For the same molecule, the GI50 (NCI/ADR-RES) was > 100 µM, the CC50 (NCI/ADR-RES) was > 100 µM and the IC (TGI) (NCI/ADR-RES) was > 100 µM. For the same molecule, the GI50 (ACHN) was 3.8 µM, the CC50 (ACHN) was 39.4 µM and the IC (TGI) (ACHN) was 14.7 µM. The GI50 (T-47D) was 4.86 µM, the CC50 (T-47D) was 63.8 µM and the IC (TGI) (T-47D) was 19.2 µM. For the same molecule, the GI50 (KM12; KM12) was 23.9 µM, the CC50 (KM12) was > 100 µM and the TGI (KM12; KM12, five dose) was 7.00E−5. For the same molecule, the “Percent Growth” value (KM12; KM12, Log10 Concentration −4.0) was −17%, the “Percent Growth” value (KM12; KM12, Log10 Concentration −5.0) was 90% and the “Percent Growth” value (KM12; KM12, Log10 Concentration −6.0) was 96%. The “Percent Growth” value (KM12; KM12, Log10 Concentration −7.0) was 95%, the “Percent Growth” value (KM12; KM12, Log10 Concentration −8.0) was 96% and the GI50 (CCRF-CEM; 5-dose assay) was 2.49 µM. For the same molecule, the GI50 (CCRF-CEM; five dose) was 2.49 µM, the CC50 (CCRF-CEM) was 64.3 µM and the IC (TGI) (CCRF-CEM) was 9.12 µM. The GI50 (NCI-H23) was 16.4 µM, the CC50 (NCI-H23) was 80.4 µM and the IC (TGI) (NCI-H23) was 36.3 µM. The GI50 (OVCAR-8) was 13.4 µM, the CC50 (OVCAR-8) was 72.2 µM and the IC (TGI) (OVCAR-8) was 31.1 µM.
